# Results published in patent US11827628B2, “Compositions and methods for inhibition of the JAK pathway” (Rigel Pharmaceuticals, Inc., priority 2005, dated 2023).
# System: Primary human T-cells
# Assay: Primary Human T-Cell Proliferation Assay Stimulated with IL-2 (CellTiter-Glo)
# Format: cell-based
# Conditions: primary human T-cell proliferation stimulated with IL-2; read-out: IC50, Example 42
# In short: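 IC50 derived from CellTiter-Glo ATP signal after 72 hours of IL-2-driven proliferation at 37° C. Cells: primary human T-cells from blood, stimulated beforehand 3-4 days on anti-CD3/anti-CD28 with IL-2, then rested from IL-2 before compound exposure in duplicate; IL-2-free wells served as unstimulated control.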
row,SMILES,IC50
1,"Cc1cc(Nc2nc(Nc3ccc(S(N)(=O)=O)cc3)ncc2F)ccc1OC(C)C#N (racemic) [Compound I-60, Racemic N2-(4-Aminosulfonyl)phenyl-N4-[4-(1-cyano)ethoxy-3-methyl]phenyl-5-fluoro-2,4-pyrimidinediamine]",2.17 µM
2,"Cc1cc(Nc2nc(Nc3cccc(S(N)(=O)=O)c3)ncc2F)ccc1OC(C)C#N (racemic) [Compound I-61, Racemic N2-(3-Aminosulfonyl)phenyl-N4-[4-(1-cyano)ethoxy-3-methyl]phenyl-5-fluoro-2,4-pyrimidinediamine]",0.123 µM
3,"Cc1cc(Nc2nc(Nc3ccc(C)c(S(N)(=O)=O)c3)ncc2F)ccc1OC(C)C#N (racemic) [Compound I-62, Racemic N2-(3-Aminosulfonyl-4-methyl)phenyl-N4-[4-(1-cyano)ethoxy-3-methyl]phenyl-5-fluoro-2,4-pyrimidinediamine]",0.376 µM
4,"Cc1cc(Nc2nc(Nc3ccc(S(N)(=O)=O)cc3)ncc2F)cc(C)c1OC(C)C#N (racemic) [Compound I-63, Racemic N2-(4-Aminosulfonyl)phenyl-N4-[4-(1-cyano)ethoxy-3,5-dimethyl]phenyl-5-fluoro-2,4-pyrimidinediamine]",1.31 µM
5,"COc1cc(Nc2ncc(F)c(Nc3ccc(OC(C)C#N)c(C)c3)n2)ccc1S(N)(=O)=O (racemic) [Compound I-64, Racemic N2-(4-Aminosulfonyl-3-methoxy)phenyl-N4-[4-(1-cyano)ethoxy-3-methyl]phenyl-5-fluoro-2,4-pyrimidinediamine]",1.88 µM
6,"CC(C#N)Oc1ccc(Nc2nc(Nc3cccc(S(N)(=O)=O)c3)ncc2F)cc1 (racemic) [Compound I-65, Racemic N2-(3-Aminosulfonyl)phenyl-N4-[4-(1-cyano)ethoxy]phenyl-5-fluoro-2,4-pyrimidinediamine]",0.0473 µM
7,"CC(C#N)Oc1ccc(Nc2nc(Nc3ccc(S(N)(=O)=O)cc3)ncc2F)cc1 (racemic) [Compound I-66, Racemic N2-(4-Aminosulfonyl)phenyl-N4-[4-(1-cyano)ethoxy]phenyl-5-fluoro-2,4-pyrimidinediamine]",0.287 µM
8,"Cc1ccc(Nc2ncc(F)c(Nc3ccc(OC(C)C#N)cc3)n2)cc1S(N)(=O)=O (racemic) [Compound I-67, Racemic N2-(3-Aminosulfonyl-4-methyl)phenyl-N4-[4-(1-cyano)ethoxy]phenyl-5-fluoro-2,4-pyrimidinediamine]",0.157 µM
9,"CC(C#N)Oc1ccc(Nc2nc(Nc3ccc(F)c(S(N)(=O)=O)c3)ncc2F)cc1 (racemic) [Compound I-68, Racemic N2-(3-Aminosulfonyl-4-fluoro)phenyl-N4-[4-(1-cyano)ethoxy]phenyl-5-fluoro-2,4-pyrimidinediamine]",0.482 µM
10,"Cc1cc(Nc2nc(Nc3ccc(F)c(S(N)(=O)=O)c3)ncc2F)ccc1OC(C)C#N (racemic) [Compound I-69, Racemic N2-(3-Aminosulfonyl-4-fluoro)phenyl-N4-[4-(1-cyano)ethoxy-3-methyl]phenyl-5-fluoro-2,4-pyrimidinediamine]",1.03 µM
11,"COc1cc(Nc2ncc(F)c(Nc3ccc(OC(C)C#N)cc3)n2)ccc1S(N)(=O)=O (racemic) [Compound I-70, Racemic N2-(4-Aminosulfonyl-3-methoxy)phenyl-N4-[4-(1-cyano)ethoxy]phenyl-5-fluoro-2,4-pyrimidinediamine]",0.573 µM
12,"Cc1cc(Nc2nc(Nc3cccc(S(N)(=O)=O)c3)ncc2F)cc(C)c1OC(C)C#N (racemic) [Compound I-71, Racemic N2-(3-Aminosulfonyl)phenyl-N4-[4-(1-cyano)ethoxy-3,5-dimethyl]phenyl-5-fluoro-2,4-pyrimidinediamine]",0.136 µM
13,"Cc1ccc(Nc2ncc(F)c(Nc3cc(C)c(OC(C)C#N)c(C)c3)n2)cc1S(N)(=O)=O (racemic) [Compound I-72, Racemic N2-(3-Aminosulfonyl-4-methyl)phenyl-N4-[4-(1-cyano)ethoxy-3,5-dimethyl]phenyl-5-fluoro-2,4-pyrimidinediamine]",0.303 µM
14,"N#CCOc1cccc(Nc2nc(Nc3cccc(S(N)(=O)=O)c3)ncc2F)c1 [Compound I-4, N2-(3-Aminosulfonyl)phenyl-N4-(3-cyanomethoxy)phenyl-5-fluoro-2,4-pyrimidinediamine]",0.178 µM
15,"Cc1cc(Nc2nc(Nc3ccc(F)c(S(N)(=O)=O)c3)ncc2F)ccc1OCC#N [Compound I-34, N2-(3-Aminosulfonyl-4-fluoro)phenyl-N4-(4-cyanomethoxy-3-methyl)phenyl-5-fluoro-2,4-pyrimidinediamine]",0.806 µM
16,"Cc1cc(Nc2nc(Nc3ccc(F)c(S(N)(=O)=O)c3)ncc2F)cc(C)c1OCC#N [Compound I-35, N2-(3-Aminosulfonyl-4-fluoro)phenyl-N4-(4-cyanomethoxy-3,5-dimethyl)phenyl-5-fluoro-2,4-pyrimidinediamine]",1.13 µM
17,"Cc1ccc(Nc2ncc(F)c(Nc3ccc(OCC#N)cc3)n2)cc1S(=O)(=O)NC(=O)C(C)C [Compound I-37, N4-(4-Cyanomethyleneoxy)phenyl-5-fluoro-N2-(3-isobutyrylaminosulfonyl-4-methyl)phenyl-2,4-pyrimidinediamine]",3.68 µM
18,"Cc1ccc(Nc2ncc(F)c(Nc3ccc(OCC#N)c(Cl)c3)n2)cc1S(N)(=O)=O [Compound I-43, N2-(3-Aminosulfonyl-4-methylphenyl)-N4-(3-chloro-4-cyanomethoxypheny)-5-fluoro-2,4-pyrimidinediamine]",0.183 µM

row,SMILES,IC50
1,"Cc1cnc(Nc2ccc(S(N)(=O)=O)cc2)nc1Nc1ccc(OCC#N)cc1 [Compound I-57, N2-(4-Aminosulfonylphenyl)-N4-(4-cyanomethoxyphenyl-5)-methyl-2,4-pyrimidinediamine]",0.0531 µM
2,"Cc1ccc(Nc2ncc(F)c(Nc3ccc(OC(C)(C)C#N)cc3)n2)cc1S(N)(=O)=O [Compound I-73, N2-(3-Aminosulfonyl-4-methyl)phenyl-N4-[4-(1-cyano-1-methyl)ethoxy]phenyl-5-fluoro-2,4-pyrimidinediamine]",0.728 µM
3,"CC(C)(C#N)Oc1ccc(Nc2nc(Nc3ccc(F)c(S(N)(=O)=O)c3)ncc2F)cc1 [Compound I-74, N2-(3-Aminosulfonyl-4-fluoro)phenyl-N4-[4-(1-cyano-1-methyl)ethoxy]phenyl-5-fluoro-2,4-pyrimidinediamine]",1.5 µM
4,"CC(C)(C#N)Oc1ccc(Nc2nc(Nc3ccc(S(N)(=O)=O)cc3)ncc2F)cc1 [Compound I-75, N2-(4-Aminosulfonyl)phenyl-N4-[4-(1-cyano-1-methyl)ethoxy]phenyl-5-fluoro-2,4-pyrimidinediamine]",3.3 µM
5,"CC(C)(C#N)Oc1ccc(Nc2nc(Nc3cccc(S(N)(=O)=O)c3)ncc2F)cc1 [Compound I-76, N2-(3-Aminosulfonyl)phenyl-N4-[4-(1-cyano-1-methyl)ethoxy]phenyl-5-fluoro-2,4-pyrimidinediamine]",0.196 µM
6,"Cc1ccc(Nc2ncc(F)c(Nc3ccc(NC(=O)CC#N)c(Cl)c3)n2)cc1S(N)(=O)=O [Compound I-83, N2-(3-Aminosulfonyl-4-methylphenyl)-N4-[3-chloro-4-(N-cyanoacetyl)aminophneyl]-5-fluoro-2,4-pyrimidinediamine]",1.76 µM
7,"Cc1ccc(Nc2ncc(F)c(Nc3cccc(OCC(N)=O)c3)n2)cc1S(N)(=O)=O [Compound I-90, N4-(3-Aminocarbonylmethoxy)phenyl-N2-(3-aminosulfonyl-4-methyl)phenyl-5-fluoro-2,4-pyrimidinediamine]",2.19 µM
8,"Cc1cc(Nc2nc(Nc3cccc(S(N)(=O)=O)c3)ncc2F)ccc1OCC(N)=O [Compound I-92, N4-(4-Aminocarbonylmethoxy-3-methyl)phenyl-N2-(3-aminosulfonyl)phenyl-5-fluoro-2,4-pyrimidinediamine]",0.543 µM
9,"Cc1cc(Nc2nc(Nc3cccc(S(N)(=O)=O)c3)ncc2F)cc(C)c1OCC(N)=O [Compound I-93, N4-(4-Aminocarbonylmethoxy-3,5-dimethyl)phenyl-N2-(3-aminosulfonyl)phenyl-5-fluoro-2,4-pyrimidinediamine]",1.17 µM
10,"Cc1ccc(Nc2ncc(F)c(Nc3ccc(OCC(N)=O)cc3)n2)cc1S(N)(=O)=O [Compound I-94, N4-(4-Aminocarbonylmethoxy)phenyl-N2-(3-aminosulfonyl-4-methyl)phenyl-5-fluoro-2,4-pyrimidinediamine]",0.563 µM
11,"Cc1cc(Nc2nc(Nc3ccc(C)c(S(N)(=O)=O)c3)ncc2F)ccc1OCC(N)=O [Compound I-95, N4-(4-Aminocarbonylmethoxy-3-methyl)phenyl-N2-(3-aminosulfonyl-4-methyl)phenyl-5-fluoro-2,4-pyrimidinediamine]",0.325 µM
12,CCC(=O)NS(=O)(=O)c1cccc(Nc2ncc(F)c(Nc3ccc(OCc4nc(C)no4)cc3)n2)c1 [Compound I-273],0.193 µM
13,"CNS(=O)(=O)c1cc(Nc2ncc(F)c(Nc3ccc(Cc4ccncc4)cc3)n2)ccc1C [III-75, 5-Fluoro-N2-[3-(N-methylaminosulfony)-4-methylphenyl]-5-fluoro-N4-[4-(4-pyridinylmethyl)phenyl]-2,4-pyrimidinediamine]",0.22 µM
14,"CNS(=O)(=O)c1cc(Nc2ncc(F)c(NCCc3ccc(-c4ccncc4)cc3)n2)ccc1C [III-78, 5-Fluoro-N2-[3-N-(methyl)aminosulfonyl-4-methylphenyl]-N4-[4-(4-pyridinyl)phenethyl]-2,4-pyrimidinediamine]",0.204 µM
15,"NS(=O)(=O)c1cccc(Nc2ncc(F)c(Nc3ccc(Cn4ccnc4)cc3)n2)c1 [III-81, N2-(3-Aminosulfonylphenyl)-5-fluoro-N4-[4-(1-imidazolylmethyl)phenyl]-2,4-pyrimidinediamine]",0.204 µM
16,"Cc1ccc(Nc2ncc(F)c(Nc3ccc(Cn4ccnc4)cc3)n2)cc1S(N)(=O)=O [III-82, N2-(3-Aminosulfonyl-4-methylphenyl)-5-fluoro-N4-[4-(1-imidazolylmethyl)phenyl]-2,4-pyrimidinediamine]",0.16 µM
17,"CNS(=O)(=O)c1cc(Nc2ncc(F)c(Nc3ccc(Cn4ccnc4)cc3)n2)ccc1C [III-83, 5-Fluoro-N2-[3-(N-methylaminosulfony)-4-methylphenyl]-5-fluoro-N4-[4-(1-imidazolylmethyl)phenyl]-2,4-pyrimidinediamine]",0.0962 µM
